Measured values taken from the NIST ThermoML archive (doi:10.1021/je101178u).
“And” between values parts separate entries of the source, which are not always exact repeats. Equal values may be shown once. ± gives the expanded uncertainty stated by the source.

Conditions: Fluid (supercritical or subcritical phases); for viscosity: vibrating wire; for mass density: Buoyancy - hydrostatic balance with magnetic suspension - one sinker

SMILES: CCC [propane]
- viscosity (366.15 K, 2181.8 kPa): 0.01055 ± 6.4e-05 mPa·s
- mass density (366.15 K, 2559.1 kPa): 50.015 ± 0.11 kg/m3
- viscosity (366.15 K, 2559.1 kPa): 0.01083 ± 6.5e-05 mPa·s
- mass density (366.15 K, 2883 kPa): 60.029 ± 0.14 kg/m3
- viscosity (366.15 K, 2883 kPa): 0.01114 ± 6.7e-05 mPa·s
- mass density (366.15 K, 3154.4 kPa): 70.033 ± 0.17 kg/m3
- viscosity (366.15 K, 3154.4 kPa): 0.01149 ± 6.9e-05 mPa·s
- mass density (366.15 K, 3381.1 kPa): 80.175 ± 0.2 kg/m3
- viscosity (366.15 K, 3381.1 kPa): 0.0119 ± 7.2e-05 mPa·s
- mass density (366.15 K, 3559.5 kPa): 90.05 ± 0.25 kg/m3
- viscosity (366.15 K, 3559.5 kPa): 0.01232 ± 7.5e-05 mPa·s
- mass density (366.15 K, 3704.1 kPa): 100.205 ± 0.29 kg/m3
- viscosity (366.15 K, 3704.1 kPa): 0.01282 ± 7.8e-05 mPa·s
- mass density (366.15 K, 3704.9 kPa): 100.267 ± 0.29 kg/m3
- viscosity (366.15 K, 3704.9 kPa): 0.01282 ± 7.8e-05 mPa·s
- mass density (373.15 K, 70 kPa): 1.0004 ± 0.003 kg/m3
- viscosity (373.15 K, 70 kPa): 0.01008 ± 6.1e-05 mPa·s
- mass density (373.15 K, 139.24 kPa): 2.0008 ± 0.0048 kg/m3
- viscosity (373.15 K, 139.24 kPa): 0.0101 ± 6.1e-05 mPa·s
- mass density (373.15 K, 275.58 kPa): 4.0037 ± 0.0087 kg/m3
- viscosity (373.15 K, 275.58 kPa): 0.01012 ± 6.1e-05 mPa·s
- mass density (373.15 K, 408.76 kPa): 6.0045 ± 0.013 kg/m3
- viscosity (373.15 K, 408.76 kPa): 0.01014 ± 6.1e-05 mPa·s
- mass density (373.15 K, 538.6 kPa): 7.9996 ± 0.017 kg/m3
- viscosity (373.15 K, 538.6 kPa): 0.01017 ± 6.1e-05 mPa·s
- mass density (373.15 K, 666.93 kPa): 10.017 ± 0.021 kg/m3
- viscosity (373.15 K, 666.93 kPa): 0.0102 ± 6.2e-05 mPa·s
- mass density (373.15 K, 733.66 kPa): 11.085 ± 0.023 kg/m3
- viscosity (373.15 K, 733.66 kPa): 0.01021 ± 6.2e-05 mPa·s
- mass density (373.15 K, 917.57 kPa): 14.099 ± 0.03 kg/m3
- viscosity (373.15 K, 917.57 kPa): 0.01026 ± 6.2e-05 mPa·s
- mass density (373.15 K, 1023.3 kPa): 15.881 ± 0.034 kg/m3
- viscosity (373.15 K, 1023.3 kPa): 0.01029 ± 6.2e-05 mPa·s
- mass density (373.15 K, 1147.8 kPa): 18.031 ± 0.038 kg/m3
- viscosity (373.15 K, 1147.8 kPa): 0.01033 ± 6.2e-05 mPa·s
- mass density (373.15 K, 1248 kPa): 19.801 ± 0.042 kg/m3
- viscosity (373.15 K, 1248 kPa): 0.01036 ± 6.2e-05 mPa·s
- mass density (373.15 K, 1781.8 kPa): 29.954 ± 0.064 kg/m3
- viscosity (373.15 K, 1781.8 kPa): 0.01058 ± 6.4e-05 mPa·s
- mass density (373.15 K, 1781.9 kPa): 29.957 ± 0.064 kg/m3
- viscosity (373.15 K, 1781.9 kPa): 0.01058 ± 6.4e-05 mPa·s
- mass density (373.15 K, 2244.2 kPa): 39.982 ± 0.087 kg/m3
- viscosity (373.15 K, 2244.2 kPa): 0.01083 ± 6.6e-05 mPa·s
- mass density (373.15 K, 2244.5 kPa): 39.99 ± 0.087 kg/m3
- viscosity (373.15 K, 2244.5 kPa): 0.01084 ± 6.6e-05 mPa·s
- mass density (373.15 K, 2640.8 kPa): 49.856 ± 0.11 kg/m3
- viscosity (373.15 K, 2640.8 kPa): 0.01113 ± 6.7e-05 mPa·s
- mass density (373.15 K, 2640.9 kPa): 49.858 ± 0.11 kg/m3
- viscosity (373.15 K, 2640.9 kPa): 0.01113 ± 6.7e-05 mPa·s
- mass density (373.15 K, 2984.3 kPa): 59.751 ± 0.14 kg/m3
- viscosity (373.15 K, 2984.3 kPa): 0.01146 ± 6.9e-05 mPa·s
- mass density (373.15 K, 2984.4 kPa): 59.753 ± 0.14 kg/m3
- viscosity (373.15 K, 2984.4 kPa): 0.01146 ± 6.9e-05 mPa·s
- mass density (373.15 K, 3288.7 kPa): 70.03 ± 0.17 kg/m3
- viscosity (373.15 K, 3288.7 kPa): 0.01186 ± 7.1e-05 mPa·s
- mass density (373.15 K, 3289 kPa): 70.041 ± 0.17 kg/m3
- viscosity (373.15 K, 3289 kPa): 0.01186 ± 7.1e-05 mPa·s
- mass density (373.15 K, 3531.3 kPa): 79.736 ± 0.2 kg/m3
- viscosity (373.15 K, 3531.3 kPa): 0.01227 ± 7.4e-05 mPa·s
- mass density (373.15 K, 3531.6 kPa): 79.746 ± 0.2 kg/m3
- viscosity (373.15 K, 3531.6 kPa): 0.01227 ± 7.4e-05 mPa·s
- mass density (373.15 K, 3739.8 kPa): 89.698 ± 0.25 kg/m3
- viscosity (373.15 K, 3739.8 kPa): 0.01273 ± 7.7e-05 mPa·s
- mass density (373.15 K, 3740.2 kPa): 89.72 ± 0.25 kg/m3
- viscosity (373.15 K, 3740.2 kPa): 0.01273 ± 7.7e-05 mPa·s
- mass density (373.15 K, 3909.1 kPa): 99.505 ± 0.3 kg/m3
- viscosity (373.15 K, 3909.1 kPa): 0.01323 ± 8.1e-05 mPa·s
- mass density (373.15 K, 3909.3 kPa): 99.518 ± 0.3 kg/m3
- viscosity (373.15 K, 3909.3 kPa): 0.01323 ± 8.1e-05 mPa·s
- mass density (373.15 K, 4152.5 kPa): 118.628 ± 0.42 kg/m3
- viscosity (373.15 K, 4152.5 kPa): 0.01431 ± 9.3e-05 mPa·s
- mass density (373.15 K, 4152.6 kPa): 118.636 ± 0.42 kg/m3
- viscosity (373.15 K, 4152.6 kPa): 0.01431 ± 9.3e-05 mPa·s
- mass density (373.15 K, 4314.6 kPa): 139.152 ± 0.41 kg/m3 and 139.148 ± 0.41 kg/m3
- viscosity (373.15 K, 4314.6 kPa): 0.01561 ± 9.7e-05 mPa·s
- mass density (373.15 K, 4400.6 kPa): 157.919 ± 0.53 kg/m3
- viscosity (373.15 K, 4400.6 kPa): 0.01691 ± 0.00011 mPa·s
- mass density (373.15 K, 4400.7 kPa): 157.947 ± 0.53 kg/m3
- viscosity (373.15 K, 4400.7 kPa): 0.01692 ± 0.00011 mPa·s
- mass density (373.15 K, 4432.9 kPa): 169.072 ± 0.66 kg/m3 and 169.051 ± 0.66 kg/m3 and 169.087 ± 0.66 kg/m3
- viscosity (373.15 K, 4432.9 kPa): 0.01772 ± 0.00013 mPa·s and 0.01773 ± 0.00013 mPa·s
- mass density (373.15 K, 4458.2 kPa): 181.456 ± 0.75 kg/m3 and 181.487 ± 0.75 kg/m3
- viscosity (373.15 K, 4458.2 kPa): 0.01876 ± 0.00014 mPa·s
- mass density (373.15 K, 4477.3 kPa): 194.68 ± 0.75 kg/m3
- viscosity (373.15 K, 4477.3 kPa): 0.02002 ± 0.00014 mPa·s
- mass density (373.15 K, 4477.4 kPa): 194.74 ± 0.75 kg/m3
- viscosity (373.15 K, 4477.4 kPa): 0.02003 ± 0.00014 mPa·s
- mass density (373.15 K, 4491.9 kPa): 207.584 ± 0.78 kg/m3
- viscosity (373.15 K, 4491.9 kPa): 0.02135 ± 0.00015 mPa·s
- mass density (373.15 K, 4492 kPa): 207.643 ± 0.78 kg/m3
- viscosity (373.15 K, 4492 kPa): 0.02135 ± 0.00015 mPa·s
- mass density (373.15 K, 4502.7 kPa): 218.095 ± 0.81 kg/m3 and 218.113 ± 0.81 kg/m3
- viscosity (373.15 K, 4502.7 kPa): 0.02247 ± 0.00016 mPa·s
- mass density (373.15 K, 4512.2 kPa): 227.171 ± 0.83 kg/m3 and 227.14 ± 0.83 kg/m3
- viscosity (373.15 K, 4512.2 kPa): 0.02347 ± 0.00017 mPa·s
- mass density (373.15 K, 4515 kPa): 229.692 ± 0.84 kg/m3
- viscosity (373.15 K, 4515 kPa): 0.02376 ± 0.00017 mPa·s
